Data: ChEMBL document CHEMBL3593229, “Identification of a potent 5-phenyl-thiazol-2-ylamine-based inhibitor of FLT3 with activity against drug resistance-conferring point mutations” (Eur J Med Chem, 2015)

Assays:
[1] = biological target: T1, Receptor-type tyrosine-protein kinase FLT3 (Homo sapiens, UniProt P36888); assay: biochemical; format: cell-based, Sf9
T1 sequence (P36888 whole entry): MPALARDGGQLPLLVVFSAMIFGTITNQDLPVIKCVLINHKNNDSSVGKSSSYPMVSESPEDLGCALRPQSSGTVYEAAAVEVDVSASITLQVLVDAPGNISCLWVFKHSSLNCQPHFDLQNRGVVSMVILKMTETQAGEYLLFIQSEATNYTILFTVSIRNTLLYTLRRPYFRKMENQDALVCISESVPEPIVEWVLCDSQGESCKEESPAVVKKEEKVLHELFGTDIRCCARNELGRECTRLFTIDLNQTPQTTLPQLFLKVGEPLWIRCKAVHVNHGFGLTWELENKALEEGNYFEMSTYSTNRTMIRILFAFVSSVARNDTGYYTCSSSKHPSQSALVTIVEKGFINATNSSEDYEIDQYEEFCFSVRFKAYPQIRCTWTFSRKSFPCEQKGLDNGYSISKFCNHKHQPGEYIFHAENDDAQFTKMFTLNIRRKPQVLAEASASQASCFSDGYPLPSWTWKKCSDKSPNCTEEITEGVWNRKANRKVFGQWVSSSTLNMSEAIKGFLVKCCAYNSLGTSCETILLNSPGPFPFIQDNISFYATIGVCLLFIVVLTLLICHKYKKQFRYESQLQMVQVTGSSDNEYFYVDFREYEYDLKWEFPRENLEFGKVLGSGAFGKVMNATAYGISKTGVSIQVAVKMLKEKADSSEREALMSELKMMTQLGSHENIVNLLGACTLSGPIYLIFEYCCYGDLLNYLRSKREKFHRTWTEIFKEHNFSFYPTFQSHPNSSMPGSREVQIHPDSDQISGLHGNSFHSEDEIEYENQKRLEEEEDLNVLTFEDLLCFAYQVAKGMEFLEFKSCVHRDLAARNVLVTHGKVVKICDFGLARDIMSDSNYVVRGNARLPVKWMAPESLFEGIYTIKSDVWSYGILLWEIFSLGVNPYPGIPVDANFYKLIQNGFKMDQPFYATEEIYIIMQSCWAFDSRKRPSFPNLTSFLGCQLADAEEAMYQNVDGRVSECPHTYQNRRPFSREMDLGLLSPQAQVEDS
Description: Inhibition of wild type GST-tagged FLT3 kinase domain (Y567 to S993) (unknown origin) expressed in baculovirus infected insect Sf9 cells using Her2 peptide as substrate after 4 hrs by Kinase-Glo assay

U-937 = assay: cells; format: functional; conditions: Homo sapiens, U-937, 72 h
Description: Cytotoxicity against FLT3-deficient human U937 cells assessed as cell growth inhibition after 72 hrs by MTS assay

[2] = AUC (0 to infinity) in Sprague-Dawley rat at 10 mg/kg, po; format: ADME, organism-based; parameters: dose 10 mg/kg, time infinity, route oral; conditions: in vivo
[3] = biological target: Proto-oncogene tyrosine-protein kinase receptor Ret (Homo sapiens) (UniProt P07949); assay: Inhibition of human RET at 0.1 uM relative to control
[4] = biological target: Platelet-derived growth factor receptor beta (Homo sapiens) (UniProt P09619); assay: Inhibition of human PDGFRbeta at 0.1 uM relative to control
[5] = biological target: Vascular endothelial growth factor receptor 3 (Homo sapiens) (UniProt P35916); assay: Inhibition of human FLT4 at 0.1 uM relative to control
Sequence of Vascular endothelial growth factor receptor 3 (Homo sapiens) (P35916 whole entry): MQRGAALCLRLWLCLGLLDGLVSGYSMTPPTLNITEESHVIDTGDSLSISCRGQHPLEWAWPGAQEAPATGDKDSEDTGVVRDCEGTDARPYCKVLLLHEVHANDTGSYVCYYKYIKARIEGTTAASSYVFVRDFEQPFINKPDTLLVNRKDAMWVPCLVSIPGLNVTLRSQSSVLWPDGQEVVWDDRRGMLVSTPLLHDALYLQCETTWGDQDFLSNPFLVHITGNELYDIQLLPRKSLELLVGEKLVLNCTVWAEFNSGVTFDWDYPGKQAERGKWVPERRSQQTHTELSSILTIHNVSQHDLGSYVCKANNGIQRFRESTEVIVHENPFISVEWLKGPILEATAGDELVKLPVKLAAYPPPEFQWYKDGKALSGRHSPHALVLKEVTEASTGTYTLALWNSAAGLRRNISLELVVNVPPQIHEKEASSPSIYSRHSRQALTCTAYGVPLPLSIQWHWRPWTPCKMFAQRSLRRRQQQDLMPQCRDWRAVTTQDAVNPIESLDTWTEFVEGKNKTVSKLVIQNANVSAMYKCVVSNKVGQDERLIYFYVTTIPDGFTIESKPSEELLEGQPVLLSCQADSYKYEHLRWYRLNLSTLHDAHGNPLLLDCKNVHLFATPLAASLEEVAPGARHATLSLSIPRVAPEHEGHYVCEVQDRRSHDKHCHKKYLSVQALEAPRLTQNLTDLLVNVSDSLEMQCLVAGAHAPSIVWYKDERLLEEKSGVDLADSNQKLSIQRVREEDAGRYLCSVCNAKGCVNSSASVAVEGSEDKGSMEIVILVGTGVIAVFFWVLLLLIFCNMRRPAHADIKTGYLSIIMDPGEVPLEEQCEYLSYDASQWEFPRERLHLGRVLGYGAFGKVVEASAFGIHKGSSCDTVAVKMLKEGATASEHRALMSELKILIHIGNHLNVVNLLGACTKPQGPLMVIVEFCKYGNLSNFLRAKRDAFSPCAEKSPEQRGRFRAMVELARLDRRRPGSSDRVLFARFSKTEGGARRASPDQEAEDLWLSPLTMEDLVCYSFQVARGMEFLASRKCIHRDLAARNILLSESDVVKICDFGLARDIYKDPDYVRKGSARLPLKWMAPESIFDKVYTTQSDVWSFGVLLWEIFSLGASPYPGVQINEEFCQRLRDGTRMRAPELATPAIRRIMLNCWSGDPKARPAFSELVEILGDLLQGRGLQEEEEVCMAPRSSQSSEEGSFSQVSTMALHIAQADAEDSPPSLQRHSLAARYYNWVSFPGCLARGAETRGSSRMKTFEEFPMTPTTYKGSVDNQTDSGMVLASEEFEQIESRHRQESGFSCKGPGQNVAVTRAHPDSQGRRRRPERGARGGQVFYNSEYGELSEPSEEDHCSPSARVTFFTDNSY

[6] = biological target: Tyrosine-protein kinase Fyn (Homo sapiens) (UniProt P06241); assay: Inhibition of human FYN at 0.1 uM relative to control
Sequence of Tyrosine-protein kinase Fyn (Homo sapiens) (P06241 2-537 limits assumed): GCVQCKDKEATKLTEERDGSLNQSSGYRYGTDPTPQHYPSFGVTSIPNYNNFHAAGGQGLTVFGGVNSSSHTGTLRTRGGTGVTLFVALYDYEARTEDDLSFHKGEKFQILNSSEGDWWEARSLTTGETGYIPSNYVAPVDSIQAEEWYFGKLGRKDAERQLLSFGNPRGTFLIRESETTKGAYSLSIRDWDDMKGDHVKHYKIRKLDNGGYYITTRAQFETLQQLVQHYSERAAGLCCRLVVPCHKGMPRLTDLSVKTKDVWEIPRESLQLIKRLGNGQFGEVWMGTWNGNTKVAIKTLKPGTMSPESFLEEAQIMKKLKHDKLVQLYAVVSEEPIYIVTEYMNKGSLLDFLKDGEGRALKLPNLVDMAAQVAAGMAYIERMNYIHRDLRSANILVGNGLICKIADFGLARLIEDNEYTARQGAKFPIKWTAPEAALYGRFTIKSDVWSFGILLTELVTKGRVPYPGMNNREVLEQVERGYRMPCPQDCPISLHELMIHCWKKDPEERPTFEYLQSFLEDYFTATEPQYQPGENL

[7] = biological target: Vascular endothelial growth factor receptor 1 (Homo sapiens) (UniProt P17948); assay: Inhibition of human FLT1 at 0.1 uM relative to control
[8] = biological target: Ribosomal protein S6 kinase beta-1 (Homo sapiens) (UniProt P23443); assay: Inhibition of human RPS6KB1 at 0.1 uM relative to control
Sequence of Ribosomal protein S6 kinase beta-1 (Homo sapiens) (P23443 whole entry, looked up): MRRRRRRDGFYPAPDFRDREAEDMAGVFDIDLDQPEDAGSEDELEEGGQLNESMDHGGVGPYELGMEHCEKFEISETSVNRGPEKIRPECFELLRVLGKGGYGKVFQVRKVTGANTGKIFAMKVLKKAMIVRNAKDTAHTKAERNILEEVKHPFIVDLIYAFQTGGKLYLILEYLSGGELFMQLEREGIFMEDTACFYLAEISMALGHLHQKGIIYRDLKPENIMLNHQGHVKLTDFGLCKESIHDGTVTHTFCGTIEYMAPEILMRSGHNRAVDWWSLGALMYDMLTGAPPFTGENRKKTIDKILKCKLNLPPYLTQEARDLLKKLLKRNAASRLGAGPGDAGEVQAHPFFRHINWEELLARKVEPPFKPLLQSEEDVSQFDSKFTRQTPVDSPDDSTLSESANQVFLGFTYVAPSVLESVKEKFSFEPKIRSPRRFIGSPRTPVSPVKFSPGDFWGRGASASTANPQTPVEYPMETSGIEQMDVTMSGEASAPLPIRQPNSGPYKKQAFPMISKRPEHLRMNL

[9] = biological target: Non-receptor tyrosine-protein kinase TYK2 (Homo sapiens) (UniProt P29597); assay: Inhibition of human TYK2 at 0.1 uM relative to control
[10] = biological target: Insulin-like growth factor 1 receptor (Homo sapiens) (UniProt P08069); assay: Inhibition of human IGF1R at 0.1 uM relative to control
Sequence of Insulin-like growth factor 1 receptor (Homo sapiens) (P08069 31-736 limits assumed): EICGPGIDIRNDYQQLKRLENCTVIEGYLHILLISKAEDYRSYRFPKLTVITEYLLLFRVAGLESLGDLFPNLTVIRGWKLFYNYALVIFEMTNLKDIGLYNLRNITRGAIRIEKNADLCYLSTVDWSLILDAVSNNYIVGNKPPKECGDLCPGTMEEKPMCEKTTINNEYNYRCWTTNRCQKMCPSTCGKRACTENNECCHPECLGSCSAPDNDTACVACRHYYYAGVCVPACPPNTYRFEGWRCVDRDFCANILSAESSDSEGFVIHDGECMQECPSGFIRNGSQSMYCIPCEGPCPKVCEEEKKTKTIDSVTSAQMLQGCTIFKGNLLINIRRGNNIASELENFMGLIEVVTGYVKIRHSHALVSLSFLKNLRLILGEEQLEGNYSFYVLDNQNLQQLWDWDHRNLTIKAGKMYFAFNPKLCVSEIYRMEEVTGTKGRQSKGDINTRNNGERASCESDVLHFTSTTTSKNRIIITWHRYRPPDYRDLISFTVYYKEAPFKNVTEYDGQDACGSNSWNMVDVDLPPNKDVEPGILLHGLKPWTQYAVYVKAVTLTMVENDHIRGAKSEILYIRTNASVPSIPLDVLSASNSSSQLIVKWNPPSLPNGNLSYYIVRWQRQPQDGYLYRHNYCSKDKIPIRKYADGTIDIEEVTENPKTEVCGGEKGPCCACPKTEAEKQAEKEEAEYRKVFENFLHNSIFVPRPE
Sequence of Insulin-like growth factor 1 receptor (Homo sapiens) (P08069 741-1367 limits assumed): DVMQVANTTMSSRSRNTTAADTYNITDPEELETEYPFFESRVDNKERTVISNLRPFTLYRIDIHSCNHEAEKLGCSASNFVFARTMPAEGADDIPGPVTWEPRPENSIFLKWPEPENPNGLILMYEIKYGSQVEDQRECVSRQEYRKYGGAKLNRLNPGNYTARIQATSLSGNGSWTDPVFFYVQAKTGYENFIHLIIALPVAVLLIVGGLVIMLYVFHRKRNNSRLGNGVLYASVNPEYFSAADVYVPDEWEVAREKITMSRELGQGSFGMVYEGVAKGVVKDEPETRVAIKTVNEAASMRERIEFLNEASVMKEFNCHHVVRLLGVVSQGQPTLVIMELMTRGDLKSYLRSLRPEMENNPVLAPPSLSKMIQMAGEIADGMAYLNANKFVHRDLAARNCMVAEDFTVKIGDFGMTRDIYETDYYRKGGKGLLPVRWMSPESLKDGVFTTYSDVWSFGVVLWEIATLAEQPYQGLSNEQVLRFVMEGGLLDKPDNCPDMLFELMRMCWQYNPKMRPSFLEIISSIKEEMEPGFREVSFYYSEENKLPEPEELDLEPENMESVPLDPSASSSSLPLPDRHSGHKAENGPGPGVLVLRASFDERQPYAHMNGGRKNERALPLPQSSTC

[11] = biological target: Hepatocyte growth factor receptor (Homo sapiens) (UniProt P08581); assay: Inhibition of human MET at 0.1 uM relative to control
[12] = biological target: Serine/threonine-protein kinase Sgk2 (Homo sapiens) (UniProt Q9HBY8); assay: Inhibition of human SGK2 at 0.1 uM relative to control
Sequence of Serine/threonine-protein kinase Sgk2 (Homo sapiens) (Q9HBY8 whole entry): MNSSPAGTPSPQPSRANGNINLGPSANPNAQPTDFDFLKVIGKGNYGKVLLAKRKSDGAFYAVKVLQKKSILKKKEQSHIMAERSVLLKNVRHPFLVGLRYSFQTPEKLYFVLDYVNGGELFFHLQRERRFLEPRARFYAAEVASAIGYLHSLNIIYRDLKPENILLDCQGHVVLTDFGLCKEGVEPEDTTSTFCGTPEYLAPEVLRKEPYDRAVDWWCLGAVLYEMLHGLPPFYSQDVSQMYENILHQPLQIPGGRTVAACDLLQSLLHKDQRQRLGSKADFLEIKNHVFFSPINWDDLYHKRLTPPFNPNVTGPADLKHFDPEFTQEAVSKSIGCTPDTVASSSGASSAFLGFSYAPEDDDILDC

[13] = biological target: Serine/threonine-protein kinase Sgk1 (Homo sapiens) (UniProt O00141); assay: Inhibition of human SGK1 at 0.1 uM relative to control
Sequence of Serine/threonine-protein kinase Sgk1 (Homo sapiens) (O00141 whole entry): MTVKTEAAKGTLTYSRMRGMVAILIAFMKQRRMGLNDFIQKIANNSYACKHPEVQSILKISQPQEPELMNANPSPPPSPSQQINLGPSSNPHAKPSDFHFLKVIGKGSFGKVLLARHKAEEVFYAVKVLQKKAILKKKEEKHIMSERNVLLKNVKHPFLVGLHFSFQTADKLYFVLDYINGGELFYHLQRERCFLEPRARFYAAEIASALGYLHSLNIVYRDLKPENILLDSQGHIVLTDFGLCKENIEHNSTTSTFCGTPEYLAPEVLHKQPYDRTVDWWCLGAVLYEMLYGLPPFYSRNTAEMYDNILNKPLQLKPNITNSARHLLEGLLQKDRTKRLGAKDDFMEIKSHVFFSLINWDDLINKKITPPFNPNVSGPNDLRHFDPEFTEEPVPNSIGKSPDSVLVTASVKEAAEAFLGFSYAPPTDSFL

[14] = biological target: Tyrosine-protein kinase JAK1 (Homo sapiens) (UniProt P23458); assay: Inhibition of human JAK1 at 0.1 uM relative to control
[15] = biological target: T1, Receptor-type tyrosine-protein kinase FLT3; assay: Inhibition of wild type FLT3 (unknown origin) phosphorylation expressed in HEK293T cells preincubated for 1 hr followed by FLT3 ligand addition for 5 mins by Western blot analysis; format: cell-based, HEK-293T
[16] = Plasma clearance in Sprague-Dawley rat at 2 mg/kg, iv; format: ADME, organism-based
[17] = Half life in Sprague-Dawley rat at 10 mg/kg, po; format: ADME, organism-based; conditions: in vivo
[18] = Cmax in ICR mouse at 10 mg/kg, po; format: ADME, organism-based; parameters: dose 10 mg/kg, route oral; conditions: in vivo
[19] = system: Receptor-type tyrosine-protein kinase FLT3 (Homo sapiens), P36888 [UNDEFINED MUTATION]; conditions: MV4-11
Description: Inhibition of FLT3 ITD homozygous mutant in human MV4-11 cells assessed as cell growth inhibition after 72 hrs by MTS assay

[20] = biological target: Receptor-type tyrosine-protein kinase FLT3 (Homo sapiens) (UniProt P36888); conditions: RS4:11 cell
Description: Inhibition of wild type homozygous FLT3 in human RS4:11 cells assessed as cell growth inhibition after 72 hrs by MTS assay

[21] = system: Receptor-type tyrosine-protein kinase FLT3 (Homo sapiens), P36888 [D835Y]

CCc1cc(NC(=O)Nc2ccc(-c3cnc(Nc4cc(N5CCN(CC)CC5)nc(C)n4)s3)cc2)no1
IC50 [1]: 38 nM
GI50 (U-937): 1100 nM
AUC(0-inf) [2]: 1080 ng·h/mL
inhibition [3]: 95%
inhibition [4]: 91%
inhibition [5]: 80%
inhibition [6]: 46%
inhibition [7]: 44%
inhibition [8]: 22%
inhibition [9]: 21%
inhibition [10]: 16%
inhibition [11]: 14%
inhibition [12]: 6%
inhibition [13]: 2%
inhibition [14]: -8%
IC50 [15]: 10 nM
clearance [16]: 31.6 mL/min/kg
half-life [17]: 4.3 h
Cmax [18]: 168 ng/mL
GI50 [19]: 1 nM
GI50 [20]: 110 nM
GI50 [21]: 6 nM
